Experimental data published in BindingDB's records for patent US20240174647 (Neuron23, 2024).

Target: Leucine-rich repeat serine/threonine-protein kinase 2 (Homo sapiens, UniProt Q5S007)
Assay: Biochemical Assay
Method: The protocol for basic TR-FRET LanthaScreen Tb Kinase Activity Assay inhibitor studies were as follows. LanthaScreen Kinase Activity Assays (ThermoFisher/USA) to evaluate inhibitors were performed by addition of 100 nL of test compound in corresponding DMSO dilutions/5 μL of kinase/fluorescein-ERM(LRRKtide) peptide mixture, 5 μL of ATP into 384 well small volume plates. After incubation for 120 minutes at room temperature, the detection reagents containing Tb-anti-pLRRKtide antibody were added to monitor phosphrylation level of peptide. Then, after 60 min minutes incubation at room temperature plates were read in Envision. Data analysis of emission ratios was according to LanthaScreen Tb Kinase Activity Assay protocol.Kinase and assay components were adjusted to final concentrations according to the kit protocol. For LRRK2: 2 nM wt human LRRK2, catalytic site, catalytic site (ThermoFisher/USA), 400 nM peptide, 38 μM ATP in 1× Kinase Buffer A.Basic protocol for TR-FRET LanthaScreen Tb Kinase Activity Assay inhibitor studies involved two steps:Enzymatic step: Addition of 100 nL of test compound in corresponding DMSO dilutions, 5 μL of kinase/substrate mixture, 5 μL of ATP into 384 well small volume plates. Incubation for 120 minutes at room temperature.Detection step: Addition of 10 μL EDTA & antibody, read plate after 60 minutes. […]

Chain of Leucine-rich repeat serine/threonine-protein kinase 2 (Q5S007 whole entry): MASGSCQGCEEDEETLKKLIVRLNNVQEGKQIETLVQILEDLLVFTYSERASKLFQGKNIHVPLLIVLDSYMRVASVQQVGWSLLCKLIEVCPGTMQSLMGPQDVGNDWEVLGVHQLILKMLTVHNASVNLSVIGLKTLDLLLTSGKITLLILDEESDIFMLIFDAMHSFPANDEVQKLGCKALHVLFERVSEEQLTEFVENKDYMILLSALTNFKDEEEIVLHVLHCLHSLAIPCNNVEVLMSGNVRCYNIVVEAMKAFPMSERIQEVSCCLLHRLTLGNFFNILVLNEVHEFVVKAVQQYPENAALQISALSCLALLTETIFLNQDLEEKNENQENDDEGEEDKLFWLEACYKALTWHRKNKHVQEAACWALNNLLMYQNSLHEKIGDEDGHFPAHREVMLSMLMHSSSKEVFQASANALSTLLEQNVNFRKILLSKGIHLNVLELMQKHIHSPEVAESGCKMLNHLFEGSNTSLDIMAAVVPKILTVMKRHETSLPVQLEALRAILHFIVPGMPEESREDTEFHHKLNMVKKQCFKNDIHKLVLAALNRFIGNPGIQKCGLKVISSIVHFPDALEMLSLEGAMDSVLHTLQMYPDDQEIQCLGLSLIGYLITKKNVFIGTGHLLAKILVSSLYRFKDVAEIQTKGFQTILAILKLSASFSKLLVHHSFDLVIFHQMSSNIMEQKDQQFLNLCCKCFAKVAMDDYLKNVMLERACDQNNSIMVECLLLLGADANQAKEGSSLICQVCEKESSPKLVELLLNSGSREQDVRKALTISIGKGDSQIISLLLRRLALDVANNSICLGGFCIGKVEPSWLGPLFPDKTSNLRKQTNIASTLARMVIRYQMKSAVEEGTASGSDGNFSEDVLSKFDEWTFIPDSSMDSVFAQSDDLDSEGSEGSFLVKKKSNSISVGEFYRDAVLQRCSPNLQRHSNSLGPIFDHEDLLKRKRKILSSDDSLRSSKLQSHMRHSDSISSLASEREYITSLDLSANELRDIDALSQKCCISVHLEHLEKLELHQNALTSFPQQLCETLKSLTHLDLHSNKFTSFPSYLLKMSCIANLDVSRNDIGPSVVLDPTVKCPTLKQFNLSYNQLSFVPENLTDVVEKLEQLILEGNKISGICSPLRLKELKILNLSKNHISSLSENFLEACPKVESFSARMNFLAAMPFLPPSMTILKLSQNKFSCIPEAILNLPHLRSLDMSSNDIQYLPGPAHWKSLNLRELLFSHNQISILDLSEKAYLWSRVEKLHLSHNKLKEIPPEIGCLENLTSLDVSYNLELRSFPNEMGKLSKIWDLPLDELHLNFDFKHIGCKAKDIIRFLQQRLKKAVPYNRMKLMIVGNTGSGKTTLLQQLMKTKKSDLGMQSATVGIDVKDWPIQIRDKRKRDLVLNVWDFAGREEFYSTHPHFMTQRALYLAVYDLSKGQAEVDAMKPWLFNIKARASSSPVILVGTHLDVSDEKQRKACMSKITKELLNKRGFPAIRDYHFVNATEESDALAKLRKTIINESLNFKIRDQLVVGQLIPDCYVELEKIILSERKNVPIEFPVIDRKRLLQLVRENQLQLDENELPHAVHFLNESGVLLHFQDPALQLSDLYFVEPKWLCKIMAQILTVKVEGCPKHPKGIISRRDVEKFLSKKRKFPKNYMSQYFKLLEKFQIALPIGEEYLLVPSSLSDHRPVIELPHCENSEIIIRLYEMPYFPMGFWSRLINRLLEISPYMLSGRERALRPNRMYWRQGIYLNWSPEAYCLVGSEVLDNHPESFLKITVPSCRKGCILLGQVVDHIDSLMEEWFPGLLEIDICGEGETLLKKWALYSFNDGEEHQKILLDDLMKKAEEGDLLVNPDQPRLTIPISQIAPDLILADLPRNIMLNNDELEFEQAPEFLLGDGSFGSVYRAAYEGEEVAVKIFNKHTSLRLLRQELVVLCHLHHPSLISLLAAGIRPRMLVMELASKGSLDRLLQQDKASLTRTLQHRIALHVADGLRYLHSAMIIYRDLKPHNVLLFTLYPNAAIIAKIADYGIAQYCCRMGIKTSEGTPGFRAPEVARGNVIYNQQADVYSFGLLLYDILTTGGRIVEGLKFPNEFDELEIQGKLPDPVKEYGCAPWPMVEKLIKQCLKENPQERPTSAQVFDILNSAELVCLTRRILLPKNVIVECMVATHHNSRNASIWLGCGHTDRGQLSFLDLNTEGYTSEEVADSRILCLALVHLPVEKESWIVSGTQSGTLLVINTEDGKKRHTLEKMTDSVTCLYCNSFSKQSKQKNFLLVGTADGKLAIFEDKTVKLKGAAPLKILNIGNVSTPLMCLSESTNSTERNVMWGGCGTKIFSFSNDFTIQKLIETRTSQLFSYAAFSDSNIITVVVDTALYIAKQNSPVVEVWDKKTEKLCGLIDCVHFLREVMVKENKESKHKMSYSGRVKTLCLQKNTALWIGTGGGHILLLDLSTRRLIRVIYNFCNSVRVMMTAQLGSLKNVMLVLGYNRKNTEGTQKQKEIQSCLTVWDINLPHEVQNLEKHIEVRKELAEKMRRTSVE

CNc1nc(Nc2ccc(F)c3[nH]ncc23)ncc1C(F)(F)F [US20240174647, Example 27]
IC50: < 50 nM
